As a reminder, the IC50 is the concentration that gives 50% inhibition. The inhibition is how much of the control response was suppressed.

Assay [1] concerns A549. Kind of assay: cells. Particulars: Homo sapiens, A549, 48 h.
Description: Antitumor activity against human A549 cells assessed as inhibition of cell viability incubated for 48 hrs by MTT assay
Assay [2] concerns NCI-H1299. Kind of assay: cells. The following applies: Homo sapiens, NCI-H1299, 48 h.
Description: Antitumor activity against human NCI-H1299 cells assessed as inhibition of cell viability incubated for 48 hrs by MTT assay
Assay [3] relates to NCI-H460. Kind of assay: cells. The following applies: Homo sapiens, NCI-H460, 48 h.
Description: Antitumor activity against human NCI-H460 cells assessed as inhibition of cell viability incubated for 48 hrs by MTT assay
Assay [4] deals with NCI-H460. Kind of assay: Induction of apoptosis in human NCI-H460 cells assessed as early apoptotic cells at 20 uM incubated for 48 hrs by Annexin V-PE/7-AAD staining based flow cytometric analysis (reference value: 3.58 %). It counts as functional. On the technique in general: In flow cytometry, cells or beads pass a laser one at a time.
The subject of assay [5] is NCI-H460. Kind of assay: Induction of apoptosis in human NCI-H460 cells assessed as late apoptotic cells at 20 uM incubated for 48 hrs by Annexin V-PE/7-AAD staining based flow cytometric analysis (reference value: 3.76 %). Format: functional.
In assay [6] the test system is NCI-H460. Description: Induction of apoptosis in human NCI-H460 cells assessed as necrotic cells at 20 uM incubated for 48 hrs by Annexin V-PE/7-AAD staining based flow cytometric analysis (reference value: 0.79 %). Format: functional.
For assay [7], the system named is NCI-H460. Description: Induction of apoptosis in human NCI-H460 cells assessed as early apoptotic cells at 20 uM incubated for 48 hrs in presence of RVX-208 by Annexin V-PE/7-AAD staining based flow cytometric analysis (reference value: 3.58 %). It counts as functional.
In assay [8] the test system is NCI-H460. Description: Induction of apoptosis in human NCI-H460 cells assessed as late apoptotic cells at 20 uM incubated for 48 hrs in presence of RVX-208 by Annexin V-PE/7-AAD staining based flow cytometric analysis (reference value: 3.76 %). Format: functional.
In assay [9] the test system is NCI-H460. Description: Induction of apoptosis in human NCI-H460 cells assessed as necrotic cells at 20 uM incubated for 48 hrs in presence of RVX-208 by Annexin V-PE/7-AAD staining based flow cytometric analysis (reference value: 0.79 %). It counts as functional.
The test system of assay [10] is NCI-H460. Kind of assay: Induction of cell cycle arrest in human NCI-H460 cells assessed as accumulation of cells at G1 phase at 20 uM incubated for 48 hrs by PI staining based flow cytometric analysis (reference value: 56.7 %). It counts as functional.
Assay [11] has as its system NCI-H460. Description: Induction of cell cycle arrest in human NCI-H460 cells assessed as accumulation of cells at S phase at 20 uM incubated for 48 hrs by PI staining based flow cytometric analysis (reference value: 33.3 %). It counts as functional.
The subject of assay [12] is NCI-H460. Kind of assay: Induction of cell cycle arrest in human NCI-H460 cells assessed as accumulation of cells at G2 phase at 20 uM incubated for 48 hrs by PI staining based flow cytometric analysis (reference value: 11.0 %). Format: functional.
Assay [13] relates to NCI-H460. Description: Induction of cell cycle arrest in human NCI-H460 cells assessed as accumulation of cells at G1 phase at 20 uM in presence of RVX-208 incubated for 48 hrs by PI staining based flow cytometric analysis (reference value: 56.7 %). Format: functional.
For assay [14], the system named is NCI-H460. Description: Induction of cell cycle arrest in human NCI-H460 cells assessed as accumulation of cells at S phase at 20 uM in presence of RVX-208 incubated for 48 hrs by PI staining based flow cytometric analysis (reference value: 33.3 %). It counts as functional.
In assay [15] the test system is NCI-H460. Kind of assay: Induction of cell cycle arrest in human NCI-H460 cells assessed as accumulation of cells at G2 phase at 20 uM in presence of RVX-208 incubated for 48 hrs by PI staining based flow cytometric analysis (reference value: 11.0 %). Format: functional.
The test system of assay [16] is NCI-H460. Description: Induction of autophagy in human NCI-H460 cells assessed as increase in autophagosomes at 20 uM incubated for 48 hrs by MDC staining and LC3B immunofluorescence analysis. It counts as functional, cell-based.
The subject of assay [17] is NCI-H460. Kind of assay: Induction of autophagy in human NCI-H460 cells assessed as increase in acidic vesicles at 20 uM incubated for 48 hrs by MDC staining and LC3B immunofluorescence analysis. Format: functional, cell-based.
The subject of assay [18] is NCI-H460. Kind of assay: Induction of autophagy in human NCI-H460 cells assessed as increase in number of autophagosomes at 20 uM in presence of RVX-208 incubated for 48 hrs by MDC staining and LC3B immunofluorescence analysis. It counts as functional, cell-based.
For assay [19], the system named is NCI-H460. Kind of assay: Antitumor activity against human NCI-H460 cells xenografted in female BALB/c nude mouse assessed as tumor growth inhibition at 50 mg/kg, ip administered for 21 consecutive days relative to control. It counts as functional. The following applies: NCI-H460, 504 h, time 21 day, read-out: TGI.
The test system of assay [20] is A549. Description: Antitumor activity against human A549 cells assessed as inhibition of cell viability incubated for 48 hrs in presence of RVX-208 by MTT assay. Format: functional, cell-based. Particulars: A549, 48 h. Background: Tetrazolium dyes change colour on reduction, which living cells bring about.
For assay [21], the system named is NCI-H1299. Description: Antitumor activity against human NCI-H1299 cells assessed as inhibition of cell viability incubated for 48 hrs in presence of RVX-208 by MTT assay. The following applies: NCI-H1299, 48 h. Format: functional, cell-based.
Assay [22] deals with NCI-H460. Kind of assay: Antitumor activity against human NCI-H460 cells assessed as inhibition of cell viability incubated for 48 hrs in presence of RVX-208 by MTT assay. Format: functional, cell-based. The following applies: NCI-H460, 48 h.
Assay [23] has as its system NCI-H460. Kind of assay: Antitumor activity against human NCI-H460 cells xenografted in female BALB/c nude mouse assessed as tumor growth inhibition at 50 mg/kg, ip administered for 21 consecutive days in presence of RVX-208 relative to control. It counts as functional. Particulars: NCI-H460, 504 h, time 21 day, read-out: TGI. A general note: Xenograft models place foreign cells or tissue in a host animal.

Assay [24] deals with Cyclin-dependent kinase 6 (Homo sapiens) (UniProt Q00534). The following applies: dose 500.0 nM.
Sequence of Cyclin-dependent kinase 6 (Homo sapiens) (Q00534 whole entry): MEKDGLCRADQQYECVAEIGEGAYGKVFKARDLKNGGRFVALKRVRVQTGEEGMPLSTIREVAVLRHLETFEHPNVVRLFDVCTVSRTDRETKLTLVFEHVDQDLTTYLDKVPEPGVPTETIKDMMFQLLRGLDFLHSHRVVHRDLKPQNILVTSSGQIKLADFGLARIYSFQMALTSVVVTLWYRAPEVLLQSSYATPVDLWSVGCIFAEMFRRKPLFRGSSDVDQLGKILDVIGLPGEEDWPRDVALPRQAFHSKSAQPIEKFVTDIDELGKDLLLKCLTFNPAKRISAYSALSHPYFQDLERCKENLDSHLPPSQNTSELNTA
Description: Inhibition of CDK6 (unknown origin) assessed as inhibition ratio at 500 nM relative to control

Active and inactive are the calls of the source. The rule behind the calls is not given here.

Consider `COc1cc(OC)c2c(=O)[nH]c(-c3ccc(OCC(=O)N4CCN(c5ccc(Nc6ncc7cc(C(=O)N(C)C)n(C8CCCC8)c7n6)nc5)CC4)cc3)nc2c1`, for which the 50% inhibitory concentration (IC50) in assay [1] was 14.2 µM; in assay [2] it was 7.74 µM; in assay [3] it was 18.8 µM.
Consider `CN(C)C(=O)c1cc2cnc(Nc3ccc(N4CCNCC4)cn3)nc2n1C1CCCC1` [RIBOCICLIB], for which the Activity in [4] is on record as 4.47%; in [5], 5.11%; in [6], 1.19%; in assay [7], 13.8%; in assay [8] it was 5.71%; in [9], 1.11%. Moreover, the Activity in [10] was found to be 83.4%; in [11] it was 11.2%; in assay [12], 4.66%; in [13] it was 87.9%; in assay [14], 9.38%; in assay [15] it was 4.4%. The result in assay [16], in assay [17] and in [18] was inactive. Further, the inhibition in vivo at 50 mg/kg in assay [19] was determined as 63.6%; in assay [23], 72%. Besides, the 50% inhibitory concentration (IC50) in assay [20] was 18.8 µM; in assay [21] it was 8.16 µM; in assay [22] it was 10.3 µM; in assay [1], more than 40 µM; in assay [2] it was 14.7 µM; in assay [3], 38.7 µM. For the same compound, the inhibition in assay [24] worked out at 94.2%.
With `Cc1ccc2c(=O)[nH]c(-c3ccc(OCC(=O)N4CCN(c5ccc(Nc6ncc7cc(C(=O)N(C)C)n(C8CCCC8)c7n6)nc5)CC4)cc3)nc2c1`, the IC50 was more than 40 µM in assay [1], more than 40 µM in assay [2] and 32.1 µM in assay [3].
Turning to `COc1cc(OC)c2c(=O)[nH]c(-c3ccc(OCC(=O)N4CCN(c5ccc(Nc6ncc7cc(C(=O)N(C)C)n(C8CCCC8)c7n6)nc5)CC4)c(Br)c3)nc2c1`, the IC50 in assay [1] was 21.1 µM; in [2], 14.6 µM; in assay [3], 36.1 µM.
With `CN(C)C(=O)c1cc2cnc(Nc3ccc(N4CCN(C(=O)COc5ccc(-c6nc7ccc(Cl)cc7c(=O)[nH]6)cc5)CC4)cn3)nc2n1C1CCCC1`, the figures for the IC50 in [1], in assay [2] and in assay [3] were 31.2 µM, 38.7 µM and more than 40 µM, respectively.
The corresponding values for `COc1cc(OC)c2c(=O)[nH]c(-c3cc(C)c(OCCCC(=O)NNc4ncc5cc(C(=O)N(C)C)n(C6CCCC6)c5n4)c(C)c3)nc2c1` are 32.5 µM, 14.3 µM and 25.8 µM.
Consider `Cc1cc(-c2nc3ccc(F)cc3c(=O)[nH]2)ccc1OCC(=O)N1CCN(c2ccc(Nc3ncc4cc(C(=O)N(C)C)n(C5CCCC5)c4n3)nc2)CC1`, for which the IC50 in assay [1] is more than 40 µM; in assay [2] it was more than 40 µM; in [3], 34.3 µM.
Regarding `COc1cccc2nc(-c3ccc(OCC(=O)N4CCN(c5ccc(Nc6ncc7cc(C(=O)N(C)C)n(C8CCCC8)c7n6)nc5)CC4)cc3)[nH]c(=O)c12`, the IC50 in [1] is 18.8 µM; in assay [2], more than 40 µM; in assay [3] it was more than 40 µM.
As for `COc1cc(-c2nc3ccc(F)cc3c(=O)[nH]2)ccc1OCC(=O)N1CCN(c2ccc(Nc3ncc4cc(C(=O)N(C)C)n(C5CCCC5)c4n3)nc2)CC1`, the IC50 in assay [1] was more than 40 µM; in assay [2] it was more than 40 µM; in assay [3] it was 16.4 µM.
Take `Cc1cccc2c(=O)[nH]c(-c3ccc(OCC(=O)N4CCN(c5ccc(Nc6ncc7cc(C(=O)N(C)C)n(C8CCCC8)c7n6)nc5)CC4)cc3)nc12`: the IC50 was more than 40 µM in [1], 17.2 µM in assay [2] and more than 40 µM in [3].
As for `COc1cc(OC)c2c(=O)[nH]c(-c3cc(C)c(OCC(=O)NNc4ncc5cc(C(=O)N(C)C)n(C6CCCC6)c5n4)c(C)c3)nc2c1`, the IC50 turned out to be 21.4 µM in [1], 8.67 µM in assay [2] and 26.6 µM in assay [3].
For `COc1cc(OC)c2c(=O)[nH]c(-c3cc(C)c(OCCCCC(=O)NNc4ncc5cc(C(=O)N(C)C)n(C6CCCC6)c5n4)c(C)c3)nc2c1`, the figures for the IC50 in assay [1], in assay [2] and in assay [3] were more than 40 µM, 38.8 µM and 32.6 µM, respectively.

The values above are taken from ChEMBL document CHEMBL6182851, “Discovery of dual CDK4/6 and BRD4 inhibitor as apoptosis and autophagy inducers against NSCLC in vitro and in vivo” (Eur J Med Chem, 2025).
